# Reference: ChEMBL document CHEMBL2021794, “Synthesis, σ₁, σ₂-receptors binding affinity and antiproliferative action of new C1-substituted adamantanes” (Bioorg Med Chem, 2012)
# Active and inactive are the calls of the source. The calls are words filed in the database; no cut-off is given here.
# Legend:
# [1] = Growth inhibition of human MSC cells after 48 hrs by SRB assay; format: cell-based
# IGROV-1 [2] = experiment: Cell cycle arrest in human IGROV1 cells assessed as accumulation at < G1 phase at 5 uM after 24 hrs by propidium iodide staining based flow cytometry (reference value: 4%); format: functional
# PC-3 [3] = experiment: Growth inhibition of human PC3 cells after 48 hrs by SRB assay; format: functional; conditions: PC-3, 48 h
# BXPC-3 [4] = experiment: Cell cycle arrest in human BxPC3 cells assessed as accumulation at >G2 phase at 50 uM after 24 hrs by propidium iodide staining based flow cytometry (reference value: 6%); format: functional
# PC-3 [5] = experiment: Induction of apoptosis in human PC3 cells assessed as healthy cells at 15 uM after 24 hrs by Annexin V/7-AAD staining based flow cytometry (reference value: 92%); format: functional
# Mus musculus [6] = experiment: Toxicity in SCID mouse assessed as weight loss at 40 mg/kg, ip after 3 to 4 weeks chronic treatment; format: organism-based; parameters: dose 40 mg/kg, route intraperitoneal; conditions: in vivo
# BXPC-3 [7] = experiment: Cell cycle arrest in human BxPC3 cells assessed as accumulation at G2 phase at 15 uM after 24 hrs by propidium iodide staining based flow cytometry (reference value: 12%); format: functional
# PC-3 [8] = experiment: Cell cycle arrest in human PC3 cells assessed as accumulation at >G2 phase at 0.5 uM after 24 hrs by propidium iodide staining based flow cytometry (reference value: 6%); format: functional
# PC-3 [9] = experiment: Induction of apoptosis in human PC3 cells assessed as late apoptotic cells at 0.5 uM after 24 hrs by Annexin V/7-AAD staining based flow cytometry (reference value: 2%); format: functional
# IGROV-1 [10] = experiment: Induction of apoptosis in human IGROV1 cells assessed as cleaved caspase-3 containing cells at 0.5 uM after 24 hrs by FACS analysis (reference value: 4%); format: functional
# PC-3 [11] = experiment: Cell cycle arrest in human PC3 cells assessed as accumulation at < G1 phase at 15 uM after 24 hrs by propidium iodide staining based flow cytometry (reference value: 4%); format: functional
# IGROV-1 [12] = experiment: Cell cycle arrest in human IGROV1 cells assessed as accumulation at G2 phase at 5 uM after 24 hrs by propidium iodide staining based flow cytometry (reference value: 19%); format: functional
# PC-3 [13] = experiment: Cell cycle arrest in human PC3 cells assessed as accumulation at < G1 phase at 50 uM after 24 hrs by propidium iodide staining based flow cytometry (reference value: 4%); format: functional
# PC-3 [14] = experiment: Induction of apoptosis in human PC3 cells assessed as early apoptotic cells at 0.5 uM after 24 hrs by Annexin V/7-AAD staining based flow cytometry (reference value: 5%); format: functional
# BXPC-3 [15] = experiment: Induction of apoptosis in human BxPC3 cells assessed as cleaved caspase-3 containing cells at 15 uM after 24 hrs by FACS analysis (reference value: 10%); format: functional
# IGROV-1 [16] = experiment: Cell cycle arrest in human IGROV1 cells assessed as accumulation at G1 phase at 5 uM after 24 hrs by propidium iodide staining based flow cytometry (reference value: 27%); format: functional
# BXPC-3 [17] = experiment: Cell cycle arrest in human BxPC3 cells assessed as accumulation at < G1 phase at 0.5 uM after 24 hrs by propidium iodide staining based flow cytometry (reference value: 9%); format: functional
# PC-3 [18] = experiment: Cell cycle arrest in human PC3 cells assessed as accumulation at < G1 phase at 0.5 uM after 24 hrs by propidium iodide staining based flow cytometry (reference value: 4%); format: functional
# PC-3 [19] = experiment: Cell cycle arrest in human PC3 cells assessed as accumulation at G2 phase at 50 uM after 24 hrs by propidium iodide staining based flow cytometry (reference value: 13%); format: functional
# BXPC-3 [20] = experiment: Cell cycle arrest in human BxPC3 cells assessed as accumulation at S phase at 15 uM after 24 hrs by propidium iodide staining based flow cytometry (reference value: 33%); format: functional
# BXPC-3 [21] = experiment: Induction of apoptosis in human BxPC3 cells assessed as early apoptotic cells at 5 uM after 24 hrs by Annexin V/7-AAD staining based flow cytometry (reference value: 11%); format: functional
# BXPC-3 [22] = experiment: Induction of apoptosis in human BxPC3 cells assessed as early apoptotic cells at 15 uM after 24 hrs by Annexin V/7-AAD staining based flow cytometry (reference value: 11%); format: functional
# Mus musculus [23] = experiment: Analgesic activity against formalin-induced neuropathic pain in paclitaxel treated CD1 mouse assessed as decrease of time spent in paw licking at 100 mg/kg, po administered 14 days post paclitaxel dosing and 1 hr prior formalin challenge measured for 35 to 40 mins post formalin challenge; format: functional, organism-based; parameters: dose 100 mg/kg
# IGROV-1 [24] = experiment: Cell cycle arrest in human IGROV1 cells assessed as accumulation at G1 phase at 15 uM after 24 hrs by propidium iodide staining based flow cytometry (reference value: 27%); format: functional
# PC-3 [25] = experiment: Induction of apoptosis in human PC3 cells assessed as cleaved caspase-3 containing cells at 5 uM after 24 hrs by FACS analysis (reference value: 3%); format: functional
# BXPC-3 [26] = experiment: Induction of apoptosis in human BxPC3 cells assessed as healthy cells at 15 uM after 24 hrs by Annexin V/7-AAD staining based flow cytometry (reference value: 77%); format: functional
# IGROV-1 [27] = experiment: Induction of apoptosis in human IGROV1 cells assessed as late apoptotic cells at 50 uM after 24 hrs by Annexin V/7-AAD staining based flow cytometry (reference value: 4%); format: functional
# IGROV-1 [28] = experiment: Induction of apoptosis in human IGROV1 cells assessed as late apoptotic cells at 15 uM after 24 hrs by Annexin V/7-AAD staining based flow cytometry (reference value: 4%); format: functional
# IGROV-1 [29] = experiment: Cell cycle arrest in human IGROV1 cells assessed as accumulation at S phase at 0.5 uM after 24 hrs by propidium iodide staining based flow cytometry (reference value: 29%); format: functional
# HCT-116 = experiment: Cytotoxicity against human HCT116 cells after 48 hrs by trypan blue assay; format: functional, cell-based
# BXPC-3 [30] = experiment: Antitumor activity against human BxPC3 cells xenografted in SCID mouse assessed as reduction in tumor volume at 40 mg/kg, ip for 5 consecutive days and 2 administrations for one more week; format: functional; conditions: BXPC-3, ip, route intraperitoneal
# BXPC-3 [31] = experiment: Cell cycle arrest in human BxPC3 cells assessed as accumulation at < G1 phase at 15 uM after 24 hrs by propidium iodide staining based flow cytometry (reference value: 9%); format: functional
# Mus musculus [32] = experiment: Analgesic activity against formalin-induced neuropathic pain in paclitaxel treated CD1 mouse assessed as decrease of time spent in paw licking at 100 mg/kg, po administered 14 days post paclitaxel dosing and 1 hr prior formalin challenge measured for 0 to 5 mins post formalin challenge; format: functional, organism-based; parameters: dose 100 mg/kg
# PC-3 [33] = experiment: Cell cycle arrest in human PC3 cells assessed as accumulation at G2 phase at 5 uM after 24 hrs by propidium iodide staining based flow cytometry (reference value: 13%); format: functional
# BXPC-3 [34] = experiment: Induction of apoptosis in human BxPC3 cells assessed as healthy cells at 5 uM after 24 hrs by Annexin V/7-AAD staining based flow cytometry (reference value: 77%); format: functional
# PC-3 [35] = experiment: Cell cycle arrest in human PC3 cells assessed as accumulation at G1 phase at 15 uM after 24 hrs by propidium iodide staining based flow cytometry (reference value: 36%); format: functional
smiles,measurement,setting,value
CN1CCN(c2ccc(C(c3ccccc3)C34CC5CC(CC(C5)C3)C4)cc2)CC1 (stereo not given),GI50 at 48 h,[1]; MSC cells,16.9 µM
same,LC50,"[1]; msc, 48 h",91.56 µM
same,TGI,"[1]; msc, 48 h",54.21 µM
same,Activity,IGROV-1 [2],5%
same,GI50,PC-3 [3],6.8 µM
same,TGI,PC-3 [3],32.9 µM
same,CC50,PC-3 [3]; read-out: LC50 (the source's name),100 µM
same,Activity,BXPC-3 [4],5%
same,Activity,PC-3 [5],89%
same,Activity,Mus musculus [6],Non-toxic
same,Activity,BXPC-3 [7],16%
same,Activity,PC-3 [8],4%
same,Activity,PC-3 [9],1%
same,Activity,IGROV-1 [10],5%
same,Activity,PC-3 [11],8%
same,Activity,IGROV-1 [12],19%
same,Activity,PC-3 [13],10%
same,Activity,PC-3 [14],3%
same,Activity,BXPC-3 [15],11%
same,Activity,IGROV-1 [16],25%
same,Activity,BXPC-3 [17],11%
same,Activity,PC-3 [18],9%
same,Activity,PC-3 [19],10%
same,Activity,BXPC-3 [20],19%
same,Activity,BXPC-3 [21],17%
same,Activity,BXPC-3 [22],12%
same,Activity,Mus musculus [23],Active
same,Activity,IGROV-1 [24],21%
same,Activity,PC-3 [25],2%
same,Activity,BXPC-3 [26],60%
same,Activity,IGROV-1 [27],16%
same,Activity,IGROV-1 [28],15%
same,Activity,IGROV-1 [29],28%
same,Activity,HCT-116,Active
same,inhibition in vivo at 40 mg/kg,BXPC-3 [30],37.8%
same,Activity,BXPC-3 [31],8%
same,Activity,Mus musculus [32],Active
same,Activity,PC-3 [33],13%
same,Activity,BXPC-3 [34],65%
same,Activity,PC-3 [35],49%
